# Literature values as cited in US10342775B2, “Vitamin A for parenteral administration” (FRESENIUS KABI DEUTSCHLAND GMBH, priority 2015, dated 2019).
smiles,measurement,value
CCCCCCCCCCCCCCCC(=O)OC/C=C(C)/C=C/C=C(C)/C=C/C1=C(C)CCCC1(C)C [retinol palmitate],solubility in water,practically insoluble in water
